In ChEMBL document CHEMBL2203274, “Desmethyl Macrolides: Synthesis and Evaluation of 4,8-Didesmethyl Telithromycin” (2012):

Legend:
Format in all cases: functional
Staphylococcus aureus [1] = assay: Antibacterial activity against Staphylococcus aureus ATCC 33591 harboring ermA mutant in presence of DMSO
Staphylococcus aureus [2] = assay: Antibacterial activity against Staphylococcus aureus UCN14 harboring ribosomal A2058T mutant in presence of DMSO
Escherichia coli [3] = assay: Antibacterial activity against Escherichia coli DK/2058G harboring 23S rRNA A2058G mutant in presence of DMSO
Escherichia coli [4] = assay: Antibacterial activity against wild type Escherichia coli DK/pKK3535 in presence of DMSO
Escherichia coli [5] = assay: Antibacterial activity against Escherichia coli SQ171/2058G harboring 23S rRNA A2058G mutant in presence of DMSO
Staphylococcus aureus [6] = assay: Antibacterial activity against Staphylococcus aureus ATCC 33591 harboring ermA mutant in presence of ethanol
Staphylococcus aureus [7] = assay: Antibacterial activity against Staphylococcus aureus UCN14 harboring ribosomal A2058T mutant in presence of ethanol
Escherichia coli [8] = assay: Antibacterial activity against Escherichia coli DK/2058G harboring 23S rRNA A2058G mutant in presence of ethanol
Escherichia coli [9] = assay: Antibacterial activity against wild type Escherichia coli DK/pKK3535 in presence of ethanol
Escherichia coli [10] = assay: Antibacterial activity against Escherichia coli SQ171/2058G harboring 23S rRNA A2058G mutant in presence of ethanol

Which MIC (Staphylococcus aureus [1]) does the source give for `CC[C@H]1OC(=O)[C@H](C)C(=O)[C@H](C)[C@@H](O[C@@H]2O[C@H](C)C[C@H](N(C)C)[C@H]2O)[C@](C)(OC)C[C@@H](C)C(=O)[C@H](C)[C@H]2N(CCCCn3cnc(-c4cccnc4)c3)C(=O)O[C@]12C` [TELITHROMYCIN] here?
Its MIC is greater than 128 mg/L.

And the MIC (Staphylococcus aureus [2])?
Its MIC is greater than 128 mg/L.

And the MIC (Escherichia coli [3])?
The MIC was 1 mg/L.

What about the MIC (Escherichia coli [4]) of the same compound?
Its MIC is 0.5 mg/L.

And the MIC (Escherichia coli [5])?
The MIC was greater than 512 mg/L.

And the MIC (Staphylococcus aureus [6])?
Its MIC is greater than 128 mg/L.

What about the MIC (Staphylococcus aureus [7]) of the same compound?
The MIC was greater than 256 mg/L.

And the MIC (Escherichia coli [8])?
Its MIC is 1 mg/L.

And the MIC (Escherichia coli [9])?
The MIC was 0.5 mg/L.

And the MIC (Escherichia coli [10])?
The MIC was greater than 512 mg/L.

How did the MIC (Staphylococcus aureus [6]) turn out when `CC[C@H]1OC(=O)[C@H](C)C(=O)C[C@@H](O[C@@H]2O[C@H](C)C[C@H](N(C)C)[C@H]2O)[C@@](C)(OC)CCC(=O)C[C@H]2[C@@H]1OC(=O)N2CCCCn1cnc(-c2cccnc2)c1` [4,8,10-TRIDESMETHYL TELITHROMYCIN] was run?
The MIC was greater than 128 mg/L.

And the MIC (Staphylococcus aureus [7])?
Its MIC is 32 mg/L.

And the MIC (Escherichia coli [8])?
Its MIC is 64 mg/L.

What about the MIC (Escherichia coli [9]) of the same compound?
The MIC was 32 mg/L.

What about the MIC (Escherichia coli [10]) of the same compound?
Its MIC is greater than 512 mg/L.

Which results are given for `CC[C@H]1OC(=O)[C@H](C)C(=O)C[C@@H](O[C@@H]2O[C@H](C)C[C@H](N(C)C)[C@H]2O)[C@](C)(OC)CCC(=O)[C@H](C)[C@H]2N(CCCCn3cnc(-c4cccnc4)c3)C(=O)O[C@]12C`?
MIC (Staphylococcus aureus [1]): > 64 mg/L; MIC (Staphylococcus aureus [2]): > 256 mg/L; MIC (Escherichia coli [3]): 32 mg/L; MIC (Escherichia coli [4]): 4 mg/L; MIC (Escherichia coli [5]): > 512 mg/L

What does the source list for `CC[C@H]1OC(=O)[C@H](C)C(=O)C[C@@H](O[C@@H]2O[C@H](C)C[C@H](N(C)C)[C@H]2O)[C@](C)(OC)C[C@@H](C)C(=O)C[C@H]2N(CCCCn3cnc(-c4cccnc4)c3)C(=O)O[C@]12C`?
MIC (Staphylococcus aureus [1]): > 128 mg/L; MIC (Staphylococcus aureus [2]): > 256 mg/L; MIC (Escherichia coli [3]): 16 mg/L; MIC (Escherichia coli [4]): 8 mg/L; MIC (Escherichia coli [5]): > 512 mg/L
